The source of these data is ChEMBL document CHEMBL4422622, “Identification of Mineralocorticoid Receptor Modulators with Low Impact on Electrolyte Homeostasis but Maintained Organ Protection” (J Med Chem, 2019).

The target of series [1] is T1, Mineralocorticoid receptor (Rattus norvegicus, UniProt P22199).
T1 sequence (P22199 whole entry): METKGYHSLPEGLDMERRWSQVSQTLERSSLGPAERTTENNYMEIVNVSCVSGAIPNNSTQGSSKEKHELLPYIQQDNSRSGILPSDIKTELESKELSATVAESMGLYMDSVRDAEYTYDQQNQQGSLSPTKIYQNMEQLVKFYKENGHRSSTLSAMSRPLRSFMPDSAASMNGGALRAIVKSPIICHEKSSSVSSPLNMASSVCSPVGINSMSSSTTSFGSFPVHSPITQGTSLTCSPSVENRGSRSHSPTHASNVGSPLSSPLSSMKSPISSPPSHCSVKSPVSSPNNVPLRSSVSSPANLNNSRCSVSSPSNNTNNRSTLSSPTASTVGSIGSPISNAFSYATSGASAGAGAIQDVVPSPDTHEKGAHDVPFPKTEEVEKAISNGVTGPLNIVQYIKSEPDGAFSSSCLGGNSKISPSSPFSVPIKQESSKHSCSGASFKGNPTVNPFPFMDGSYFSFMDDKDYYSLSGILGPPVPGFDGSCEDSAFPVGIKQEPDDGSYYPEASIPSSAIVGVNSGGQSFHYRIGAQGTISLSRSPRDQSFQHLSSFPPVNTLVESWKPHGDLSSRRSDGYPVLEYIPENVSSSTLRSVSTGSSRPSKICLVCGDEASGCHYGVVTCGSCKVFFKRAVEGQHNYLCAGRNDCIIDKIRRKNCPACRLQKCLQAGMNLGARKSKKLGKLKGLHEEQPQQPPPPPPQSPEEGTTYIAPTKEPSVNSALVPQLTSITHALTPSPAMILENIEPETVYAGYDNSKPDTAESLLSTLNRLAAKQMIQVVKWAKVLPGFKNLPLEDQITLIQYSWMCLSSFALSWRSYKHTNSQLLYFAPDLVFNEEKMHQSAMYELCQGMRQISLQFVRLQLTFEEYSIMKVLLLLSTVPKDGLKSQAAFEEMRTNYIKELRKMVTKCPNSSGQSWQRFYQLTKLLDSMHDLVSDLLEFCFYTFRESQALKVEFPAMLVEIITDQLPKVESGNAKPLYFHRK
Description: Antagonist activity at gal4-fused rat mineralocorticoid receptor LBD in expressed in human U2OS cells by luciferase reporter gene assay

In series [2] the target is T2, Mineralocorticoid receptor (Homo sapiens, UniProt P08235).
T2 sequence (P08235 whole entry): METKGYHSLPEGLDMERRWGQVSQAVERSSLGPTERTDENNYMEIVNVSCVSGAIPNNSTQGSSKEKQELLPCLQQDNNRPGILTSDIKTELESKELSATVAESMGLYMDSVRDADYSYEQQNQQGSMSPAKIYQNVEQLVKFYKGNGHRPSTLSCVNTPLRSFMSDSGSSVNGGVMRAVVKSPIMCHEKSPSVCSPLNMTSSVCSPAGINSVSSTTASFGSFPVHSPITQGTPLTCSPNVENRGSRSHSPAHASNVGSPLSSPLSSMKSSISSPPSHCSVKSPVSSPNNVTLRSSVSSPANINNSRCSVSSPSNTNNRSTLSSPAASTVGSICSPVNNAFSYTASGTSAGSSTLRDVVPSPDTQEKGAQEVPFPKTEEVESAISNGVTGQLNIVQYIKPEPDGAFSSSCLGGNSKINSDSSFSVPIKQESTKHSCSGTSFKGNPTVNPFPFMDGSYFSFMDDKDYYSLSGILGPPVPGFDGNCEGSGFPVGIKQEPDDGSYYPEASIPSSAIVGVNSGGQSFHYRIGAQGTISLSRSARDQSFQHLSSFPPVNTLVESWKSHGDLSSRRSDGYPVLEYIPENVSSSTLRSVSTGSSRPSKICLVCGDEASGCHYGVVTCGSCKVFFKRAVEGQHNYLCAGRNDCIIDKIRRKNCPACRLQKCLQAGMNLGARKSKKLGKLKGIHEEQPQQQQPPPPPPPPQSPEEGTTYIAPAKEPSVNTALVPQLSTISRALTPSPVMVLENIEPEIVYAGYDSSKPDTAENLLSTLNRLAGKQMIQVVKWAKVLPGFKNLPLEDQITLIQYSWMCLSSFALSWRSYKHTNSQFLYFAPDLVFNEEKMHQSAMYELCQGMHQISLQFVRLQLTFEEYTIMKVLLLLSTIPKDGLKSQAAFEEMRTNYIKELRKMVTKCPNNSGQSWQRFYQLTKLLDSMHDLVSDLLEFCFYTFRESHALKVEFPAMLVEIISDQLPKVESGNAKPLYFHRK
Description: Antagonist activity at full length human mineralocorticoid receptor expressed in human U2OS cells by luciferase reporter gene assay

Series [3] has as its system Rattus norvegicus. Kind of series: Induction of hyperkalemia in Sprague-Dawley rat fed on low salt diet for 72 hrs assessed as increase in Na+/K+ ratio in urine administered via oral gavage after 8 hrs. The format is organism-based. As to conditions: in vivo.
For series [4], the target named is T2, Mineralocorticoid receptor. This is another data set of the same source.
Description: Displacement of [3H]-aldosterone to human mineralocorticoid receptor LBD by radiometric binding assay
Series [5] has as its target T2, Mineralocorticoid receptor. This is another data set of the same source.
Description: Antagonist activity at gal4-fused human mineralocorticoid receptor LBD expressed in UAS-MR-bla HEK293 cells by luciferase reporter gene assay
The nature of series [6]: Apparent permeability in human Caco2 cells at 10 uM after 45 to 120 mins by LC/MS/MS analysis. It counts as ADME, cell-based. As to conditions: Caco-2. (Caco-2 cells form a polarised layer with tight junctions and transporters.)
Series [7] can be described thus: Intrinsic clearance in Han Wistar rat hepatocytes assessed per million cells at 1 uM after 4 hrs by LC/MS/MS analysis. As to conditions: read-out: CLH. It counts as ADME, cell-based, Hepatocyte.
Series [8] in a line: Intrinsic clearance in human hepatocytes assessed per million cells at 1 uM measured up to 120 mins in presence of NADPH by LC-MS/MS analysis. It counts as ADME, cell-based, Hepatocyte. As to conditions: read-out: CLH.
Series [9] is described as follows: Fraction unbound in Han Wistar rat plasma at 1 uM after 4 hrs by LC/MS/MS analysis. The format is ADME, cell-free.
The nature of series [10]: Clearance in Han Wistar rat at 1.2 mg/kg, iv by LC-MS/MS analysis. The format is ADME, organism-based. The note with it: in vivo.
The nature of series [11]: Volume of distribution at steady state in Han Wistar rat at 1.2 mg/kg, iv by LC-MS/MS analysis. The note with it: in vivo, read-out: Vdss. The format is ADME, organism-based.
Series [12] addresses T2, Mineralocorticoid receptor. This is another data set of the same source.
Description: Modulation activity at human mineralocorticoid receptor in human EA.hy926 cells assessed as blocking of nuclear translocation of mineralocorticoid receptor in presence of aldosterone by receptor translocation assay
The target of series [13] is T3, Glucocorticoid receptor (Homo sapiens, UniProt P04150).
T3 sequence (P04150 whole entry): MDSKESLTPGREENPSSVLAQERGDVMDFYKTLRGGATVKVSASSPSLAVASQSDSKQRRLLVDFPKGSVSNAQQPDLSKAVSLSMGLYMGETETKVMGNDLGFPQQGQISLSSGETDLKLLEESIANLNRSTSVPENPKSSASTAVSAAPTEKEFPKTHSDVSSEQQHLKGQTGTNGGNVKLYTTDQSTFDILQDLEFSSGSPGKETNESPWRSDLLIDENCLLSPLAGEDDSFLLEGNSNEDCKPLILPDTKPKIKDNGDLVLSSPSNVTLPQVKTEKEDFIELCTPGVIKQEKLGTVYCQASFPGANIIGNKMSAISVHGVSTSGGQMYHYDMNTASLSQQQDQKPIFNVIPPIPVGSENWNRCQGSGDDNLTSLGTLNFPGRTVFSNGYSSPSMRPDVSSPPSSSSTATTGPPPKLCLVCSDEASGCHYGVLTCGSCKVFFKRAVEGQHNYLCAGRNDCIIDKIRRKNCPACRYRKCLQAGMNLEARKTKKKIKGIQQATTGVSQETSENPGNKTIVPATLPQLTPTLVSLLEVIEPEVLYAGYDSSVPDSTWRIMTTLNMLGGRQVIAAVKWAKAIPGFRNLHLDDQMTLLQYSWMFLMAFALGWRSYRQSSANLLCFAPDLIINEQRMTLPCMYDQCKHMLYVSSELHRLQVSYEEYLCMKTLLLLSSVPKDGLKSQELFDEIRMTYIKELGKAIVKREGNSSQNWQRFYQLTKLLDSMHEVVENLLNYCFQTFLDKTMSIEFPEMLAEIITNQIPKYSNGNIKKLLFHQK
Description: Binding affinity to recombinant human GR LBD by fluormone GS red-fluorescence polarization assay

Series [14] in a line: Oral bioavailability in Han Wistar rat at 99 mg/kg by LC-MS/MS analysis. The format is ADME, organism-based. The note with it: in vivo.
Series [15] is described as follows: Terminal half life in Han Wistar rat at 1.2 mg/kg, iv by LC-MS/MS analysis. As to conditions: in vivo, read-out: beta t1/2 (converted). It counts as ADME, organism-based.
The nature of series [16]: Octanol-water partitioning co-efficient, log D of the compound at pH 7.4 by LC/MS/MS analysis. It counts as physicochemical.
For series [17], the target named is T2, Mineralocorticoid receptor. The source holds these as a separate data set.
Description: Modulation activity at human mineralocorticoid receptor in human EA.hy926 cells assessed as induction of nuclear translocation of mineralocorticoid receptor in absence of aldosterone by receptor translocation assay
In series [18] the test system is Rattus norvegicus. In words: Induction of hyperkalemia in Sprague-Dawley rat fed on low salt diet for 72 hrs assessed as increase in eplerenone-mediated Na+/K+ ratio in urine administered via oral gavage co-administered with after 8 hrs. The note with it: in vivo. It counts as organism-based.
Series [19] in a line: Oral bioavailability in Han Wistar rat at 48 mg/kg by LC-MS/MS analysis. It counts as ADME, organism-based. As to conditions: in vivo.

Each structure is given as a SMILES string. pEC50, pIC50, pKi: −log10 of the molar value.

As usually defined, the pIC50 is the IC50 on a negative log10 scale, so that one unit is a factor of ten. Low values mean a high IC50, high ones a low IC50. As a reminder, the pKi is −log10 of the Ki, conventionally taken in molar units. Low values mean a large Ki, high ones a small Ki. What is called Papp is a coefficient for how fast a substance crosses the barrier. A word on the fraction unbound: it is free concentration divided by total concentration. The clearance is the rate of elimination divided by the concentration. As a reminder, the bioavailability is dose-corrected exposure relative to a reference, in per cent. A lower bioavailability goes with poor availability. One may read the logD as the decadic logarithm of the distribution of all forms, ionised or not, between an organic phase and buffer at a given pH. The pEC50 is the negative decadic logarithm of the EC50, by convention in mol/L. Low readings indicate a large EC50, high ones a small EC50.

Turning to `NC(=O)C[C@H]1COc2cc(F)cc(F)c2N1C(=O)c1ccc2c(c1)NC(=O)CO2`, the pIC50 is 7.00 in series [1], 6.30 in series [2], 6.20 in series [5] and under 5.00 in series [12]. For the same molecule, the Activity entry in series [3] is recorded as “Non-Toxic”. Also, the figures for the pKi in series [4] and in series [13] were 7.00 and 5.90, respectively. In addition, the Papp at 10 µM in series [6] came to 4.2 ×10⁻⁶ cm/s. The hepatocyte CLint at 1 µM in series [7] is 4.9 µL/min/1e6 cells; in series [8] it was under 1 µL/min/1e6 cells. In series [9], this molecule yielded a free fraction (fraction unbound) at 4 h, 1 µM of 0.6. For the same molecule, the clearance in [10] is 47 mL/min/kg. Moreover, in series [11], the Vd was 1.2 L/kg. The bioavailability in series [14] was 50%. Also, in [15], the half-life is 24.6 min. In series [16], this molecule registered a logD of 1.1. For the same molecule, in series [17], the pEC50 was 7.90.

With `CNC(=O)C[C@H]1COc2ccc(Cl)cc2N1C(=O)c1ccc2c(c1)NC(=O)CO2`, the pIC50 is 7.10 in series [1], 6.00 in series [5] and 7.00 in [12]. In addition, the Activity entry in series [18] and in series [3] was “Toxic” throughout. Further, the bioavailability in series [19] stood at 45%. Moreover, the figures for the pKi in series [4] and in series [13] were 7.00 and 6.80, respectively. Further, the hepatocyte CLint at 1 µM in series [7] is 20 µL/min/1e6 cells; in series [8] it was 4.6 µL/min/1e6 cells. The molecule also registered a fraction unbound at 4 h, 1 µM in series [9] of 0.34. The same molecule showed a clearance in series [10] of 32 mL/min/kg. For the same molecule, the Vd in series [11] turned out to be 0.8 L/kg. Further, the half-life in [15] is 18 min. This molecule displayed a logD in [16] of 1.8. For the same molecule, the pEC50 in series [17] is under 5.00.
